The values that follow come from patent US11286263B2, “Macrocyclic fluorine substituted indole derivatives” (The Broad Institute, Inc., priority 2017, dated 2022).

One assay addresses BCL-XL (Homo sapiens (Human), UniProt Q07817). Briefly: Protein-protein interaction assay BCL-XL/Bad BH3 peptide (BCL-XL assay), TR-FRET. It counts as binding. The settings on record: median. The method, then:
Assay 2 Protein-Protein Interaction Assay: BCL-XL/Bad BH3 Peptide (BCL-XL Assay)
The dose-dependent inhibition by the compounds described in this invention of the interaction between BCL-XL and the BH3 domain of Bad (both human) was determined using a steady state binding competition assay with time-resolved fluorescence energy transfer (TR-FRET) readout. For that purpose BCL-XL (amino acids 1-212, C-terminal fused to a hexahistidine (6× His) tag (SEQ ID 3) and a synthetic Bad BH3-derived peptide of sequence Biotin-PEG2-PEG2-NLWAAQRYGRELRR-Nle-SDEFVDSFKK-amide (SEQ ID 4) served as protein receptor and tracer ligand respectively. The recombinant BCL-XL protein (expressed in Ecol) was purchased from BPS Bioscience (San Diego, Calif., USA). The Bad BH3-derived peptide can be obtained from e.g. Biosyntan (Berlin, Germany).
In the assay 11 different concentrations of each compound (0.1 nM, 0.33 nM, 1.1 nM, 3.8 nM, 13 nM, 44 nM, 0.15 μM, 0.51 μM, 1.7 μM, 5.9 μM and 20 μM) were typically measured as duplicates in the same microtiter plate. For that, 100-fold concentrated DMSO solutions were prepared by serial dilutions (1:3.4) of a 2 mM stock solution in a clear, 384-well microtiter plate (Greiner Bio-One, Frickenhausen, Germany). From there, 50 nl were transferred in a dark test plate (Greiner Bio-One, Frickenhausen, Germany). The assay was initiated by addition of 2 μl of a 2,5-fold concentrated His-BCL-XL solution (usually for a 1 nM end concentration in 5 μl reaction volume) in aqueous assay buffer [50 mM Tris/HCl pH 7, 100 mM sodium chloride (NaCl), 50 μM potassium fluoride (KF), 0.005% Tween-20, 2 mM DTT, 0.1% bovine gamma globulin (BGG)] to the compounds in the assay plate. This was followed by a 10-minute incubation step at 22° C. for pre-equilibration of the putative complex between His-BCL-XL and the compounds. After that, 3 μl of a 1.67-fold concentrated solution (in assay buffer) consisting of Bad BH3-derived peptide (1 nM end concentration) and TR-FRET detection reagents [1.67 nM anti-His-Eu cryptate and 1.67 nM streptavidin-XL665 (both from Cisbio Bioassays, Codolet, France)], were added.
The mixture was incubated in the dark for one hour at 22° C. and then overnight at 4° C. The formation of BCL-XL/Bad complexes was determined by measuring the resonance energy transfer of the anti-His-Eu-cryptate antibody to the streptavidin-XL665 present in the reaction. For that purpose, the fluorescence emission at 620 nm and 665 nm after excitation at 330-350 nm was measured in a TR-FRET measuring instrument, for instance a Rubystar or a Pherastar (both from BMG Lab Technologies, Offenburg, Germany) or a Viewlux (Perkin-Elmer). The ratio of the emission at 665 nm and at 622 nm was used as indicator of the amount of BCL-XL/Bad complexes present.
The resulting data (ratio) were normalized, taking 0% inhibition as the mean value of control measurements (usually 32 data points) where all reagents were included. In this case 50 nl DMSO were used instead of compounds. A 100% inhibition corresponded to the mean value of control measurements (usually 32 data points) where all reagents except BCL-XL were included. IC50 values were determined by regression analysis based on a 4 parameter equation (minimum, maximum, IC50, Hill; Y=Max+(Min−Max)/(1+(X/IC50)^Hill) using the Screener Software (Genedata).

Another assay deals with MCL1 protein (Homo sapiens (Human), UniProt Q07820). Briefly: PIxEL: protein-protein interaction in permeabilized cells by ELISA (Assay 5). It counts as cell-based. The note with it: permeabilized RKO cells, biotin-BIM BH3 peptide, median. The method, then: Assay 5 PI×EL: Protein-Protein Interaction in Permeabilized Cells by ELISA
Most MCL1 protein molecules are localized at the mitochondria outer membrane and sequester pro-apoptotic proteins through binding of their BCL2 homology domain 3 (BH3 domain). MEB buffer (150 mM mannitol, 10 mM HEPES pH 7.5, 50 mM KCl, 20 μM EDTA, 20 μM EGTA, 5 mM potassium succinate, 0.1% protease-free BSA (SIGMA) with low dose digitonin (0.002%) permeabilizes plasma membrane while leaves live mitochondria, where MCL1 maintains its native localization and conformation. Unlike biophysical assays (e.g. TR-FRET) that use truncated recombinant MCL1 protein, this assay uses full length endogenous MCL1 protein at mitochondria outer membrane. It measures the interaction between MCL1 protein and biotinylated BIM BH3 peptide. Compounds can compete with BIM BH3 peptide to bind to MCL1 protein. This serum free assay measures the affinity between MCL1 protein and compound in permeabilized cells, therefore it is not affected by serum binding and cell permeability, and can measure the intrinsic compound affinity.
On day 1, RKO colon cancer cell line cells were plated at 0.8 million cells/ml, 100 μl/well in 96-well flat bottom TC plates (Corning). MCL1 antibody (Santa Cruz sc-12756) were diluted at 200 fold (final concentration 1 μg/ml) in carbonate buffer (Thermo Fisher Scientific, pH 9.6), and 50 μl of diluted antibody was added to each well of high bind ELISA plates (SARSTEDT). Each plate was tapped to make sure liquid covering entire bottom of wells and incubate at 37° C. overnight.
On the second day, MCL1 antibody was washed from ELISA plate. 250 μl Odyssey® Blocking Buffer (PBS) (Li-Cor) was added to each well, incubated at room temperature for at least 1 hour, then washed once with 250 μl 1×PBST. Plates with RKO cells were gently washed once with 100 μl/well PBS, once with 100 μl/well MEB buffer without digitonin, then 100 μl of MEB buffer with 0.002% digitonin was gently added to each well. Compounds were added with HP Tecan compound dispenser in 3-fold dilution series, highest dose 30 μM, 10-dose per compound in quadruplicates. Biotin-BIM peptide (synthesized by 21st Century) was added with HP Tecan compound dispenser at 0.2 μM immediately after the addition of compounds. Plates were rocked for 1 hour at room temperature. Then MEB buffer was aspirated and 50 μl of CHAPS buffer (50 mM Tris-Cl, pH 7.4, 150 mM NaCl, 1% CHAPS, 1 mM EDTA, 1 mM EGTA, complete protease inhibitors (Roche), PhosSTOP (Roche)) was added to each well. Plates were rocked for 1 hour at 4° C., then 45 μl cell lysate from each well were transferred to ELISA plates coated with MCL1 antibody. Plates were incubated overnight in the cold room with rocking.
On the third day, ELISA plates were washed once with 250 μl 1×PBST. Streptavidin-poly-HRP (Thermo Fisher Scientific) was diluted to 20 ng/ml in Odyssey blocking buffer plus 0.05% Triton-100, and 100 μl was added to each well of the ELISA plate. Plates were incubated at room temperature for 1 hour with rocking, then washed with 100 μL 1×PBST for 3 times. Each SuperSignal ELISA Femto Maximum Sensitivity substrate was added to a 50-ml tube and mixed, then 100 μl of mixed substrate was added to each well. Plates were shaken for 1 minute then luminescence was measured by Envision plate reader […]. Signal of each well were normalized by no-compound control and no-cell control. IC50 was calculated using Graphic Pad PRISM software.

Where a name gives a salt, the structure may show the parent alone.

Chain of MCL1 protein (Q07820 whole entry, the tested form may be a part): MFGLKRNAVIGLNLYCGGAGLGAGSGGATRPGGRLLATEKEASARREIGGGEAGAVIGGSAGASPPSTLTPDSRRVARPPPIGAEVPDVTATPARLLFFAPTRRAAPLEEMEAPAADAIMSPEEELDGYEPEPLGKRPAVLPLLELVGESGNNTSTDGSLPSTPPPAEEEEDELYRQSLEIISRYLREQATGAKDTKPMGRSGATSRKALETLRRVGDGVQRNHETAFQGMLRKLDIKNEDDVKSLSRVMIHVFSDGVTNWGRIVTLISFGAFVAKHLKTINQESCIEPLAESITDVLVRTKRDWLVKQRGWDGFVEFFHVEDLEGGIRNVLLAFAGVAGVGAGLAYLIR
Chain of BCL-XL (Q07817 1-212): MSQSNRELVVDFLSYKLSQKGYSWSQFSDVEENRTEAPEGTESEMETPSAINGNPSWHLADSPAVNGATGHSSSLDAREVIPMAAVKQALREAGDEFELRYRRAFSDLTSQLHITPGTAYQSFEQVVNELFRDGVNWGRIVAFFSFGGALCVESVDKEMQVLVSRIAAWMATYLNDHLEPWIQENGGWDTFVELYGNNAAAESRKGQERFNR

For `Cc1c2c(nn1C)COCCCCn1c(C(=O)O)c(CCCOc3ccc(F)c4ccccc34)c3ccc(F)c-2c31` (racemic) [Example 15, (rac)-13-fluoro-1-(3-((4-fluoronaphthalen-1-yl)oxy)propyl)-11,12-dimethyl-4,5,6,7,9,11-hexahydropyrazolo[4′,3′:9,10][1]oxa[6]azacycloundecino[8,7,6-hi]indole-2-carboxylic acid], the IC50 against BCL-XL is greater than 20 µM; at MCL1 protein it was 4.16 µM.
For `CCc1nn(C)c2c1-c1c(F)ccc3c(CCCOc4cccc5ccccc45)c(C(=O)O)n(c13)CCCCOC2` (racemic) [Example 37, (rac)-12-ethyl-13-fluoro-10-methyl-1-(3-(naphthalen-1-yloxy)propyl)-4,5,6,7,9,10-hexahydro-pyrazolo[4′,3′:9,10][1]oxa[6]azacycloundecino[8,7,6-hi]indole-2-carboxylic acid], in that order: greater than 20 µM and 7.35 µM.
For `Cc1c2c(nn1C)COCCCCn1c(C(=O)O)c(CCCOc3ccc(F)c4ccccc34)c3ccc(F)c-2c31` (single isomer, unassigned; enantiomer 1) [Example 16, 4-fluoro-7-{3-[(4-fluoronaphthalen-1-yl)oxy]propyl}-2,3-dimethyl-2,10,11,12,13,15-hexahydro-pyrazolo[4′,3′:9,10][1,6]oxazacycloundecino[8,7,6-hi]indole-8-carboxylic acid (enantiomer 1)], in that order: greater than 20 µM and 32.3 µM.
For `CCc1c2c(nn1C)COCCCCn1c(C(=O)O)c(CCCOc3cccc4cc(F)ccc34)c3ccc(F)c-2c31` (single isomer, unassigned; enantiomer 1) [Example 24, 3-ethyl-4-fluoro-7-{3-[(6-fluoronaphthalen-1-yl)oxy]propyl}-2-methyl-2,10,11,12,13,15-hexahydropyrazolo[4′,3′:9,10][1,6]oxazacycloundecino[8,7,6-hi]indole-8-carboxylic acid (enantiomer 1)], in that order: greater than 20 µM and 0.424 µM.
In the case of `CCc1c2c(nn1C)COCCCCn1c(C(=O)O)c(CCCOc3ccc(F)c4ccccc34)c3ccc(F)c-2c31` (single isomer, unassigned; enantiomer 1) [Example 27, 3-ethyl-4-fluoro-7-{3-[(4-fluoronaphthalen-1-yl)oxy]propyl}-2-methyl-2,10,11,12,13,15-hexahydropyrazolo[4′,3′:9,10][1,6]oxazacycloundecino[8,7,6-hi]indole-8-carboxylic acid-N-ethylethanamine salt (enantiomer 1)], the midpoint of inhibition against MCL1 protein, the IC50, lay at 2.43 µM.
Still for that read-out and setting: the same measure for `CCc1nn(C)c2c1-c1c(F)ccc3c(CCCOc4cccc5cc(F)ccc45)c(C(=O)O)n(c13)CCCCOC2` (single isomer, unassigned; enantiomer 1) [Example 39, 3-ethyl-4-fluoro-7-{3-[(6-fluoronaphthalen-1-yl)oxy]propyl}-1-methyl-1,10,11,12,13,15-hexahydropyrazolo[4′,3′:9,10][1,6]oxazacycloundecino[8,7,6-hi]indole-8-carboxylic acid-N-ethylethanamine salt (enantiomer 1)]: 2.38 µM.
Take `CCc1nn(C)c2c1-c1c(F)ccc3c(CCCOc4ccc(F)c5ccccc45)c(C(=O)O)n(c13)CCCCOC2` (single isomer, unassigned; enantiomer 1) [Example 42, 3-ethyl-4-fluoro-7-{3-[(4-fluoronaphthalen-1-yl)oxy]propyl}-1-methyl-1,10,11,12,13,15-hexahydropyrazolo[4′,3′:9,10][1,6]oxazacycloundecino[8,7,6-hi]indole-8-carboxylic acid (enantiomer 1)]: the IC50 against BCL-XL is greater than 20 µM; against MCL1 protein, 8.91 µM.
`CCc1c2c(nn1C)COCCCCn1c(C(=O)O)c(CCCOc3cccc4cc(F)ccc34)c3ccc(F)c-2c31` (single isomer, unassigned; enantiomer 2) [Example 23, 3-ethyl-4-fluoro-7-{3-[(6-fluoronaphthalen-1-yl)oxy]propyl}-2-methyl-2,10,11,12,13,15-hexahydropyrazolo[4′,3′:9,10][1,6]oxazacycloundecino[8,7,6-hi]indole-8-carboxylic acid-N-ethylethanamine salt (enantiomer 2)]: the IC50 against MCL1 protein came to 15.1 µM.
